# Laboratory results published in DBAASP.
# What was measured:
# Experiment in all cases: ≥ marks a high value that may be exact or a test limit, other limits are often not marked, values filed in µg/mL are converted to µM
# [1] = tested on: Candida parapsilosis CGMCC 2.3989
# [2] = tested on: Candida tropicalis CGMCC 2.1975
# Escherichia coli 078 = tested on: Escherichia coli 078
# Escherichia coli K88 = tested on: Escherichia coli K88
# Escherichia coli K99 = tested on: Escherichia coli K99
# Escherichia coli UB1005 = tested on: Escherichia coli UB1005
# [3] = tested on: Pseudomonas aeruginosa ATCC 27853
# [4] = tested on: Salmonella enterica subsp. enterica serovar Pullorum ATCC 7913
# [5] = tested on: Salmonella enterica subsp. enterica serovar Typhimurium ATCC 14028
# [6] = tested on: Salmonella enterica subsp. enterica serovar Typhimurium C77-31
# [7] = tested on: Staphylococcus aureus ATCC 25923
# [8] = tested on: Staphylococcus aureus ATCC 43300
# [9] = tested on: Staphylococcus epidermidis ATCC 12228
# [10] = tested on: Enterococcus faecalis ATCC 29212
# [11] = tested on: Escherichia coli ATCC 25922
# Klebsiella pneumoniae = tested on: Klebsiella pneumoniae
# [12] = tested on: Pseudomonas aeruginosa CMCCB 1010
# Pseudomonas aeruginosa = tested on: Pseudomonas aeruginosa
# Shigella dysenteriae = tested on: Shigella dysenteriae
# [13] = tested on: Bordetella bronchiseptica CUN 11844-99
# [14] = tested on: Bacillus subtilis DSM 347
# [15] = tested on: Escherichia coli DSM 1116
# [16] = tested on: Franconibacter helveticus DSM 18390
# [17] = tested on: Staphylococcus xylosus DSM 20287
# Escherichia coli ML-35 = tested on: Escherichia coli ML-35
# [18] = tested on: Serratia marcescens ATCC 8100
MIC [3] [µM],MIC [5] [µM],MIC [7] [µM],MIC [11] [µM],MIC [14] [µM],MIC [15] [µM],MIC [16] [µM],MIC [17] [µM],SMILES,other results
,,,,9.44,≥ 75.6,≥ 53.4,≥ 75.6,CC[C@H](C)[C@H](N)C(=O)N[C@@H](C)C(=O)N[C@@H](CCCCN)C(=O)N[C@H](C(=O)N[C@@H](C)C(=O)NCC(=O)N[C@@H](CCCCN)C(=O)N[C@H](C(=O)N[C@@H](C)C(=O)N[C@@H](CCCCN)C(=O)N[C@H](C(=O)N[C@@H](C)C(=O)NCC(=O)N[C@@H](CCCCN)C(=O)N[C@H](C(=O)N[C@@H](C)C(=O)N[C@@H](CCCCN)C(N)=O)[C@@H](C)CC)[C@@H](C)CC)[C@@H](C)CC)[C@@H](C)CC [IAKIAGKIAKIAGKIAK],
,,,,0.842,0.842,0.842,0.842,CC[C@H](C)[C@H](NC(=O)[C@H](CCCCN)NC(=O)CNC(=O)[C@H](C)NC(=O)[C@@H](NC(=O)[C@H](CCCCN)NC(=O)[C@H](C)NC(=O)[C@@H](NC(=O)[C@H](CCCCN)NC(=O)CNC(=O)[C@H](C)NC(=O)[C@@H](NC(=O)[C@H](CCCCN)NC(=O)[C@H](C)NC(=O)[C@@H](NC(=O)[C@H](CCCCN)NC(=O)CNC(=O)[C@H](C)NC(=O)[C@@H](NC(=O)[C@H](CCCCN)NC(=O)[C@H](C)NC(=O)[C@@H](NC(=O)[C@@H](N)CCCCN)[C@@H](C)CC)[C@@H](C)CC)[C@@H](C)CC)[C@@H](C)CC)[C@@H](C)CC)[C@@H](C)CC)C(=O)N[C@@H](C)C(N)=O [KIAKIAGKIAKIAGKIAKIAGKIA],
,,,,6.68,6.68,9.44,≥ 37.8,CC[C@H](C)[C@H](NC(=O)[C@H](CCCCN)NC(=O)CNC(=O)[C@H](C)NC(=O)[C@@H](NC(=O)[C@H](CCCCN)NC(=O)[C@H](C)NC(=O)[C@@H](NC(=O)[C@H](CCCCN)NC(=O)CNC(=O)[C@H](C)NC(=O)[C@@H](NC(=O)[C@H](CCCCN)NC(=O)[C@H](C)NC(=O)[C@@H](NC(=O)[C@@H](N)CCCCN)[C@@H](C)CC)[C@@H](C)CC)[C@@H](C)CC)[C@@H](C)CC)C(=O)N[C@@H](C)C(N)=O [KIAKIAGKIAKIAGKIA],
,> 128,> 128,> 128,,,,,CC[C@H](C)[C@H](NC(=O)[C@@H]1CCCN1C(=O)[C@H](CCCN=C(N)N)NC(=O)[C@@H]1CCCN1C(=O)CNC(=O)[C@@H]1CCCN1C(=O)[C@H](CCCN=C(N)N)NC(=O)[C@@H]1CCCN1C(=O)[C@H](Cc1ccccc1)NC(=O)[C@@H]1CCCN1C(=O)[C@H](CC(C)C)NC(=O)[C@@H]1CCCN1C(=O)[C@H](CCCN=C(N)N)NC(=O)[C@@H]1CCCN1)C(=O)O [PRPLPFPRPGPRPI],MIC (Escherichia coli ML-35): ≥ 128 µM; MIC [18]: ≥ 128 µM

# Further lines, the molecule ahead of its results:
SMILES,MIC [3] [µM],MIC [5] [µM],MIC [7] [µM],MIC [11] [µM],MIC [14] [µM],MIC [15] [µM],MIC [16] [µM],MIC [17] [µM],other results
CC[C@H](C)[C@H](NC(=O)[C@H](CCCN=C(N)N)NC(=O)[C@H](C)NC(=O)[C@H](C)N)C(=O)N[C@H](C(=O)N[C@@H](CC(C)C)C(=O)N[C@@H](CCCN=C(N)N)C(=O)N[C@@H](C)C(=O)N[C@@H](CCCN=C(N)N)C(=O)N[C@@H](Cc1ccccc1)C(=O)N[C@@H](CCCN=C(N)N)C(N)=O)[C@@H](C)CC [AARIILRARFR],16,4,4,,,,,,MIC [1]: 16 µM; MIC [2]: 4 µM; MIC (Escherichia coli 078): 4 µM; MIC (Escherichia coli K88): 2 µM; MIC (Escherichia coli K99): 2 µM; MIC (Escherichia coli UB1005): 2 µM; MIC [4]: 4 µM; MIC [6]: 4 µM; MIC [8]: 2 µM; MIC [9]: 2 µM
CC[C@H](C)[C@H](NC(=O)[C@H](CCCN=C(N)N)NC(=O)[C@H](CC(C)C)NC(=O)[C@@H](NC(=O)[C@@H](NC(=O)[C@H](CCCN=C(N)N)NC(=O)[C@H](C)NC(=O)[C@H](C)N)[C@@H](C)CC)[C@@H](C)CC)C(=O)N[C@@H](CCCN=C(N)N)C(=O)N[C@@H](Cc1ccccc1)C(=O)N[C@@H](CCCN=C(N)N)C(N)=O [AARIILRIRFR],16,2,2,,,,,,MIC [1]: 4 µM; MIC [2]: 4 µM; MIC (Escherichia coli 078): 2 µM; MIC (Escherichia coli K88): 2 µM; MIC (Escherichia coli K99): 4 µM; MIC (Escherichia coli UB1005): 4 µM; MIC [4]: 2 µM; MIC [6]: 4 µM; MIC [8]: 2 µM; MIC [9]: 2 µM
CC[C@H](C)[C@H](NC(=O)[C@H](CC(C)C)NC(=O)[C@@H](NC(=O)[C@@H](NC(=O)[C@H](C)NC(=O)[C@@H](NC(=O)[C@H](CC(N)=O)NC(=O)[C@H](CCCCN)NC(=O)[C@H](C)NC(=O)[C@@H](NC(=O)[C@H](CC(N)=O)NC(=O)[C@H](CCCCN)NC(=O)[C@H](C)NC(=O)[C@@H](NC(=O)[C@H](CC(=O)O)NC(=O)[C@H](CCSC)NC(=O)[C@H](Cc1ccccc1)NC(=O)CN)[C@@H](C)O)C(C)C)C(C)C)C(C)C)[C@@H](C)O)C(=O)N[C@@H](CC(=O)O)C(=O)N[C@@H](CCCCN)C(=O)N[C@@H](CC(C)C)C(=O)N[C@@H](CCCN=C(N)N)C(=O)N[C@H]1CSSC[C@@H](C(=O)O)NC(=O)CNC(=O)CNC(=O)[C@H]([C@@H](C)O)NC(=O)[C@H](C(C)C)NC(=O)[C@H](CCCCN)NC1=O [GFMDTAKNVAKNVAVTLIDKLRCKVTGGC],33,,20,13,,,,,MIC [10]: 20 µM; MIC (Klebsiella pneumoniae): 50 µM; MIC [12]: 20 µM; MIC (Pseudomonas aeruginosa): 50 µM; MIC (Shigella dysenteriae): ≥ 50 µM
NCCCC[C@H](NC(=O)[C@H](Cc1ccc(O)cc1)NC(=O)[C@H](CCCN=C(N)N)NC(=O)[C@H](CCCN=C(N)N)NC(=O)CN)C(=O)N[C@@H](CCCCN)C(=O)N[C@@H](Cc1ccccc1)C(=O)N[C@@H](CCCCN)C(=O)N[C@@H](Cc1c[nH]c2ccccc12)C(=O)N[C@@H](CCCN=C(N)N)C(=O)N[C@@H](Cc1ccccc1)C(=O)N[C@@H](CCCN=C(N)N)C(=O)NCC(=O)N[C@@H](CCCN=C(N)N)C(=O)N[C@@H](Cc1ccccc1)C(=O)N[C@@H](Cc1c[nH]c2ccccc12)C(=O)N[C@@H](Cc1ccccc1)C(=O)N[C@@H](Cc1c[nH]c2ccccc12)C(=O)NCC(N)=O [GRRYKKFKWRFRGRFWFWG],,,12,24,,,,,MIC [13]: 6 µM
CC[C@H](C)[C@H](N)C(=O)N[C@@H](C)C(=O)NCC(=O)N[C@@H](CCCCN)C(=O)N[C@H](C(=O)N[C@@H](C)C(=O)N[C@@H](CCCCN)C(=O)N[C@H](C(=O)N[C@@H](C)C(=O)NCC(=O)N[C@@H](CCCCN)C(=O)N[C@H](C(=O)N[C@@H](C)C(=O)N[C@@H](CCCCN)C(=O)N[C@H](C(=O)N[C@@H](C)C(=O)NCC(=O)N[C@@H](CCCCN)C(=O)N[C@H](C(=O)N[C@@H](C)C(=O)N[C@@H](CCCCN)C(N)=O)[C@@H](C)CC)[C@@H](C)CC)[C@@H](C)CC)[C@@H](C)CC)[C@@H](C)CC [IAGKIAKIAGKIAKIAGKIAK],,,,,1.37,1.94,1.37,1.37,
